One data set deals with NFκB. The experiment in a line: Inhibitory action on the NFκB activity, luciferase assay in SW480/NRE-Luc cells. Type of data set: cell-based, human. The settings on record: for IC50: Homo sapiens, SW480, read-out: NFκB inhibitory activity IC50; for NFκB inhibitory activity IC50: SW480/NRE-Luc cells, compound 1 h then 50 ng/mL TNFα 4 h, luciferase. The method in brief: (§1)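 Stable SW480 colon cancer lines carried luciferase driven by a 5× NFκB response element or by the SV40 promoter. Compound was added 1 h before 50 ng/mL TNFα, followed by 4 h culture at 37 °C; luminescence was read and IC50 taken as 50% inhibition of induced luciferase expression.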

Data set [1] relates to human colon cancer SW480 cells. The experiment in a line: Inhibitory action on the proliferation of SW480 cells. The format is cell-based. The settings on record: 48 hours, TetraColor ONE; for IC50: Homo sapiens, SW480. The method in brief:
(§2)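 Cells seeded overnight (SW480 2000/well in 10% FBS/RPMI1640; A549, HT-29 1000/well in 10% FBS DMEM or DMEM F12 HAM), then compound-treated at 37 °C, 5% CO2 for 48 h (SW480) or 96 h (A549, HT-29). Viable cells counted by TetraColor ONE; IC50 for 50% proliferation inhibition.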

Data set [2] has as its system human colon cancer HT-29 cells. Kind of data set: Inhibitory action on the proliferation of HT-29 cells. The format is cell-based. Conditions: 96 hours, TetraColor ONE; for IC50: Homo sapiens, HT-29. The method, boiled down:
as §2

The test system of data set [3] is human non-small cell lung cancer A549 cells. The experiment in a line: Inhibitory action on the proliferation of A549 cells. The format is cell-based. Conditions: 96 hours, TetraColor ONE; for IC50: Homo sapiens, A549. The method in brief: as §2
A further data set concerns SV40 promoter. The experiment in a line: SV40 promoter activity, luciferase assay in SW480/SV40-Luc cells. Type of data set: cell-based, human. Conditions: for IC50: Homo sapiens, SW480, read-out: SV40 promoter inhibitory activity IC50; for SV40 promoter inhibitory activity IC50: SW480/SV40-Luc cells, luciferase. The method in brief:
as §1

Data set [4] concerns mice transplanted with mouse fibrosarcoma Meth A cells. Kind of data set: Animal toxicity test. Type of data set: in vivo. The settings on record: intravenous days 1, 5, 9, observed three weeks. Here is the method: Also, the toxicity of known phenanthroindolizidine alkaloid compounds, namely (12aS,13S)-6,7-dimethoxy-9,10,11,12,12a,13-hexahydro-9a-aza-cyclopenta[b]triphenylene-3,13-diol (known compound 1; refer to WO01/023384) and (12aS,13S)-3,6,7-trimethoxy-9,10,11,12,12a,13-hexahydro-9a-aza-cyclopenta[b]triphenylene-13-ol (known compound 2; refer to Planta Med., 2002, 68: 186-188), was simultaneously studied. To a control group, a physiological saline solution, a solvent, was administered. As a result, as shown in the following Tables 35 and 36, all the mice survived in a group administered with the compound of the present invention.

Each structure is given as a SMILES string.

A word on the IC50: it is the point on the concentration scale where inhibition reaches its midpoint. In the case of `COc1cc2c3c(c4ccc(F)cc4c2cc1OC)C[C@@H]1CCCN1C3.Cl` [Compound 31, (S)-3-fluoro-6,7-dimethoxy-9,10,11,12,12a,13-hexahydro-9a-aza-cyclopenta[b]triphenylene hydrochloride], the IC50 was 28.8 ng/mL in the data set on NFκB; 50.2 ng/mL in data set [1]; 10.6 ng/mL in data set [2]; 1.5 ng/mL in data set [3]; greater than 1000 ng/mL in the data set with SV40 promoter. Moreover, the Mortality rate in data set [4] (total dose 25 mg/kg) and in data set [4] (total dose 50 mg/kg) was 0/5 throughout.
For `COc1cc2c3c(c4ccc(OC(=O)c5cccnc5)cc4c2cc1OC)C[C@@H]1CCCN1C3.Cl` [Compound 39, nicotinic acid(S)-6,7-dimethoxy-9,10,11,12,12a,13-hexahydro-9a-aza-cyclopenta[b]triphenylene-3-yl ester hydrochloride], the “NFκB inhibitory activity IC50” value with NFκB is 2.2 ng/mL. Moreover, in data set [1], the “SW480 proliferation inhibitory action IC50” value amounted to 1.3 ng/mL. In addition, the “HT-29 proliferation inhibitory action IC50” value in data set [2] was 2.6 ng/mL. For the same compound, in data set [3], the “A549 proliferation inhibitory action IC50” value worked out at 0.97 ng/mL. Also, the “SV40 promoter inhibitory activity IC50” value in the data set with SV40 promoter is greater than 100 ng/mL. For the same compound, the Mortality rate in data set [4] (total dose 25 mg/kg) and in data set [4] (total dose 50 mg/kg) was 0/5 throughout.
As to `C#CCOC(=O)Oc1ccc2c3c(c4cc(OC)c(OC)cc4c2c1)CN1CCC[C@H]1[C@H]3O.Cl` [Compound 27, carbonic acid(12aS,13S)-13-hydroxy-6,7-dimethoxy-9,10,11,12,12a,13-hexahydro-9a-aza-cyclopenta[b]triphenylene-3-yl ester-propyn-2-yl ester hydrochloride], the “NFκB inhibitory activity IC50” value with NFκB was 0.37 ng/mL. Also, the “SW480 proliferation inhibitory action IC50” value in data set [1] is 0.66 ng/mL. Also, in data set [2], the “HT-29 proliferation inhibitory action IC50” value was determined as 0.055 ng/mL. Moreover, in data set [3], the “A549 proliferation inhibitory action IC50” value is on record as 0.025 ng/mL. The “SV40 promoter inhibitory activity IC50” value in the data set with SV40 promoter is on record as greater than 10 ng/mL. Moreover, the Mortality rate in data set [4] (total dose 25 mg/kg) and in data set [4] (total dose 50 mg/kg) was 0/5 each time.
Turning to `COc1cc2c3c(c4ccccc4c2cc1OC)C[C@@H]1CCCN1C3.Cl` [Compound 32, (S)-6,7-dimethoxy-9,10,11,12,12a,13-hexahydro-9a-aza-cyclopenta[b]triphenylene hydrochloride], the IC50 in the data set with NFκB was 27.8 ng/mL; in data set [1], 39.3 ng/mL; in data set [2] it was 3.1 ng/mL; in data set [3], 0.7 ng/mL; in the data set on SV40 promoter, greater than 100 ng/mL. In addition, the Mortality rate in data set [4] (total dose 25 mg/kg) and in data set [4] (total dose 50 mg/kg) was 0/5 each time.
`COc1cc2c3c(c4cc(O)ccc4c2cc1OC)[C@H](O)[C@@H]1CCCN1C3.Cl` [Compound 29, (12aS,13S)-6,7-dimethoxy-9,10,11,12,12a,13-hexahydro-9a-aza-cyclopenta[b]triphenylene-2,13-diol hydrochloride]: the IC50 in the data set on NFκB is 1.4 ng/mL; in data set [1], 4 ng/mL; in data set [2], 2.5 ng/mL; in data set [3] it was 1.7 ng/mL; in the data set with SV40 promoter it was greater than 1000 ng/mL. The Mortality rate in data set [4] (total dose 25 mg/kg) and in data set [4] (total dose 50 mg/kg) was 0/5 each time.
In the case of `COC(=O)Oc1ccc2c3c(c4cc(OC)c(OC)cc4c2c1)CN1CCC[C@H]1C3.Cl` [Compound 37, carbonic acid(S)-6,7-dimethoxy-9,10,11,12,12a,13-hexahydro-9a-aza-cyclopenta[b]triphenylene-3-yl ester methyl ester hydrochloride], the “NFκB inhibitory activity IC50” value with NFκB was 2.9 ng/mL. For the same compound, the “SW480 proliferation inhibitory action IC50” value in data set [1] is reported as 0.68 ng/mL. For the same compound, the “HT-29 proliferation inhibitory action IC50” value in data set [2] worked out at 1.6 ng/mL. Besides, the “A549 proliferation inhibitory action IC50” value in data set [3] stood at 0.65 ng/mL. For the same compound, the “SV40 promoter inhibitory activity IC50” value in the data set with SV40 promoter is recorded as greater than 100 ng/mL. Besides, the Mortality rate in data set [4] (total dose 25 mg/kg) and in data set [4] (total dose 50 mg/kg) was 0/5 each time.
For the compound `COc1cc2c3c(c4ccc(OC(C)=O)cc4c2cc1OC)C(F)[C@@H]1CCCN1C3.Cl` (stereo partly drawn) [Compound 14, acetic acid(S)-13-fluoro-6,7-dimethoxy-9,10,11,12,12a,13-hexahydro-9a-aza-cyclopenta[b]triphenylene-3-yl ester hydrochloride], in the data set on NFκB, the “NFκB inhibitory activity IC50” value came to 1.7 ng/mL. For the same compound, in data set [1], the “SW480 proliferation inhibitory action IC50” value is 2.1 ng/mL. The “HT-29 proliferation inhibitory action IC50” value in data set [2] turned out to be 0.62 ng/mL. Moreover, the “A549 proliferation inhibitory action IC50” value in data set [3] turned out to be 0.23 ng/mL. Further, in the data set on SV40 promoter, the “SV40 promoter inhibitory activity IC50” value was greater than 100 ng/mL. Also, the Mortality rate in data set [4] (total dose 25 mg/kg) and in data set [4] (total dose 50 mg/kg) was 0/5 each time.
Take `COc1cc2c3c(c4ccc(OC(C)=O)cc4c2cc1OC)[C@H](O)[C@@H]1CCCN1C3.Cl` [Compound 7, acetic acid(12aS,13S)-13-hydroxy-6,7-dimethoxy-9,10,11,12,12a,13-hexahydro-9a-aza-cyclopenta[b]triphenylene-3-yl ester hydrochloride]: the “NFκB inhibitory activity IC50” value in the data set on NFκB amounted to 0.25 ng/mL. Moreover, in data set [1], the “SW480 proliferation inhibitory action IC50” value was 0.41 ng/mL. Also, the “HT-29 proliferation inhibitory action IC50” value in data set [2] was found to be 0.080 ng/mL. Moreover, the “A549 proliferation inhibitory action IC50” value in data set [3] was found to be 0.63 ng/mL. In the data set with SV40 promoter, the “SV40 promoter inhibitory activity IC50” value is greater than 100 ng/mL. The Mortality rate in data set [4] (total dose 25 mg/kg) and in data set [4] (total dose 50 mg/kg) was 0/5 in each case.
With `COc1ccc2c3c(c4cc(OC)c(OC)cc4c2c1)CN1CCC[C@H]1[C@H]3O` [Known Compound 2, (12aS,13S)-3,6,7-trimethoxy-9,10,11,12,12a,13-hexahydro-9a-aza-cyclopenta[b]triphenylene-13-ol, reference compound], the Mortality rate was 2/5 in data set [4] (total dose 25 mg/kg, 25 mg/kg); “some of the mice also died” in data set [4] (total dose 25 mg/kg, listed as known compound 2, 25 mg/kg); 5/5 in data set [4] (total dose 50 mg/kg, 50 mg/kg); “all the mice died” in data set [4] (total dose 50 mg/kg, listed as known compound 2, 50 mg/kg).
Take `COc1cc2c3c(c4ccc(O)cc4c2cc1OC)[C@H](O)[C@@H]1CCCN1C3` [Known compound 1, (12aS,13S)-6,7-dimethoxy-9,10,11,12,12a,13-hexahydro-9a-aza-cyclopenta[b]triphenylene-3,13-diol, reference compound]: the Mortality rate in data set [4] (total dose 25 mg/kg) was 0/5; in data set [4] (total dose 50 mg/kg, 50 mg/kg), 5/5; in data set [4] (total dose 50 mg/kg, listed as known compound 1, 50 mg/kg), “all the mice died”.
Consider `CCC(=O)Oc1ccc2c3c(c4cc(OC)c(OC)cc4c2c1)CN1CCC[C@H]1[C@H]3O.Cl` [Compound 15, propionic acid(12aS,13S)-13-hydroxy-6,7-dimethoxy-9,10,11,12,12a,13-hexahydro-9a-aza-cyclopenta[b]triphenylene-3-yl ester hydrochloride], for which, in the data set with NFκB, the “NFκB inhibitory activity IC50” value worked out at 0.20 ng/mL. Besides, the “SW480 proliferation inhibitory action IC50” value in data set [1] was 0.39 ng/mL. For the same compound, in data set [2], the “HT-29 proliferation inhibitory action IC50” value stood at 0.62 ng/mL. In addition, the “A549 proliferation inhibitory action IC50” value in data set [3] is 0.35 ng/mL. The “SV40 promoter inhibitory activity IC50” value in the data set with SV40 promoter is on record as greater than 100 ng/mL.
Consider `COc1cc2c3c(c4ccc(OC(=O)c5cccnc5)cc4c2cc1OC)[C@H](O)[C@@H]1CCCN1C3.Cl` [Compound 11, nicotinic acid(12aS,13S)-13-hydroxy-6,7-dimethoxy-9,10,11,12,12a,13-hexahydro-9a-aza-cyclopenta[b]triphenylene-3-yl ester hydrochloride], for which, in the data set with NFκB, the “NFκB inhibitory activity IC50” value stood at 0.48 ng/mL. Moreover, the “SW480 proliferation inhibitory action IC50” value in data set [1] is 0.50 ng/mL. Further, the “HT-29 proliferation inhibitory action IC50” value in data set [2] was found to be 0.44 ng/mL. Besides, the “A549 proliferation inhibitory action IC50” value in data set [3] worked out at 0.028 ng/mL. The “SV40 promoter inhibitory activity IC50” value in the data set on SV40 promoter is greater than 10 ng/mL.
With `COc1cc2c3c(c4ccc(NC(=O)OCC(C)C)cc4c2cc1OC)[C@H](O)[C@@H]1CCCN1C3.Cl` [Compound 18, ((12aS,13S)-13-hydroxy-6,7-dimethoxy-9,10,11,12,12a,13-hexahydro-9a-aza-cyclopenta[b]triphenylene-3-yl)-carbamic acid isobutyl ester hydrochloride], the IC50 in the data set with NFκB is 15.5 ng/mL; in data set [1], 27.6 ng/mL; in data set [2], 18.1 ng/mL; in data set [3], 16.2 ng/mL; with SV40 promoter it was greater than 1000 ng/mL.

The record behind these values is patent US8569327B2, “Phenanthroindolizidine derivative and NFκB inhibitor containing same as active ingredient” (Kabushiki Kaisha Yakult Honsha, priority 2008, dated 2013).
